Here are results for 78 compounds from the METLIN SMRT retention time set (Domingo-Almenara et al. 2019).

The nature of the data set: gradient 5% acetonitrile 3 min, to 50% in 2 min, to 85% in 15 min, held 3 min, 100 µL/min. The settings on record: column: Zorbax Extend-C18 2.1 x 50 mm; eluents: water / acetonitrile, 0.1% formic acid. In a few lines: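 Pure standards were analyzed in mixtures of ~100 molecules using HPLC coupled to a quadrupole time-of-flight mass spectrometer, in both positive and negative ionization mode. Separation used a Zorbax Extend-C18 column (2.1 × 50 mm, 1.8 μm) at 100 μL/min, with water and acetonitrile each containing 0.1% formic acid. Dead and dwell volumes were 40 μL and 900 μL, and data were collected over 3 months. Retention time was read from computationally picked adduct peaks, each inspected manually.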
For `CC(C)n1c(CCNC(=O)c2ccccc2)nc2cccnc21`, the RP-LC retention time worked out at 640 s. In turn, `CCc1nncn1C1CCN(S(=O)(=O)c2cccc(F)c2)CC1` yielded an RP-LC retention time of 678 s.

As for `CCS(=O)(=O)N1CCc2nc(-c3ccc(F)cc3)ncc2C1`, the RP-LC retention time amounted to 847 s. Next, `CCN1CCN(c2cc(C)c3cc(NC(=S)N4CCC(N5CCCCC5)CC4)ccc3n2)CC1`: 488 s; `Cc1noc2nc(CCC(=O)NCc3ccc(Cl)cc3)nc(N3CCOCC3)c12`: 740 s; `Cc1nnc(-c2cccc(Cl)c2)nc1N1CCC(C)CC1`: 986 s. `O=C(NCc1cccc(F)c1)c1cc(N2CCCC2)n2nccc2n1` gave an RP-LC retention time of 946 s.

For the compound `O=C(COc1ccccc1-c1nc(-c2ccccc2Cl)no1)NCc1ccco1`, the RP-LC retention time is 1060 s.

Take `CCOc1ccccc1CNC(=O)C1CCN(S(=O)(=O)c2ccc3[nH]c(=O)ccc3c2)CC1`: the RP-LC retention time was 750 s. With `COc1ccc(-c2noc(C3(NC(=O)c4ccc(C(F)(F)F)cc4)CCCCC3)n2)cc1`, the RP-LC retention time amounted to 1260 s. `CCOc1ccccc1NC(=O)N1CCCC(C)(C(=O)NCc2ccc(F)cc2)C1` (stereo not drawn) yielded an RP-LC retention time of 983 s.

On to `COCCN1C(=O)c2ccccc2C(C(=O)NC2CCCC2)C1c1cccs1` (stereo not drawn), for which the RP-LC retention time was 843 s.

The compound `CC(C)N1CCC(F)(c2nc(-c3ccccc3)no2)CC1` came in with an RP-LC retention time of 657 s. Compound `Cc1cc(C)nc(-n2nc(C)c3c2N(C)C(=O)CC3c2ccccc2Cl)n1` (stereo not drawn) had an RP-LC retention time of 810 s. Compound `COc1ccccc1NC(=O)Cn1cc(C(=O)N2CCCC2)c(=O)c2ccc(C)nc21` yielded an RP-LC retention time of 705 s. With `COc1ccc(-c2nc(-c3ccc(S(=O)(=O)N4CCC(C)CC4)cc3)no2)cc1` the figure was 1340 s; with `Cc1cc2c(c(=O)n(-c3ccccc3)c(=O)n2CC(=O)Nc2cccc(Cl)c2)n1C`, 870 s. Compound `CCc1cc(C(=O)Nc2ccccc2C)nc2ccnn12` yielded an RP-LC retention time of 1010 s. With `CC1(C)CC(=O)c2cn(-c3ccc(Cl)cc3)c(=O)c(C(=O)N3CCCC3)c2C1`, the RP-LC retention time turned out to be 786 s. Next, `O=C(CN1C(=O)CCC1=O)N(Cc1ccsc1)Cc1ccco1`: 710 s. `O=C(NCc1ccco1)C1CCN(Cc2cc3ccccc3n2Cc2ccccc2Cl)CC1`: the RP-LC retention time stood at 790 s. As for `CCn1ncc(C(=O)N2CC(n3cc(COc4ccc(F)cc4)nn3)C2)c1C`, the RP-LC retention time came out at 714 s. `O=C(NCc1csc(-c2ccccc2)n1)[C@H]1CCCN1C(=O)c1cccc(Br)c1` displayed an RP-LC retention time of 889 s. On to `O=c1c2cnc3nc(-c4ccccc4Cl)nn3c2ccn1CCc1c[nH]c2ccccc12`, for which the RP-LC retention time came to 950 s. Next, `CCCn1cc(C(=O)NCC(=O)OCC)c(S(=O)(=O)N2CCN(c3ccc(Cl)cc3)CC2)n1`: 1040 s. Compound `Cc1cc(C)cc(NC(=O)N2CCCC(Cn3c(C)nc4cccnc43)C2)c1` (stereo not drawn) gave an RP-LC retention time of 671 s. The compound `O=c1cc(-c2ccccc2)oc2cc(O)c(O)cc12` had an RP-LC retention time of 750 s.

Regarding `O=C(c1ccc(F)c(F)c1)N1CCc2[nH]cnc2C1c1ccccc1` (stereo not drawn), the RP-LC retention time came out at 652 s. Compound `O=C(Cn1ccn2nc(-c3ccc(F)cc3)c(CO)c2c1=O)NCCC1=CCCCC1` registered an RP-LC retention time of 900 s. Compound `COc1ccc(CNS(=O)(=O)c2c(C)sc(C)c2-c2cc(C(F)(F)F)on2)cc1` registered an RP-LC retention time of 1150 s.

Regarding `CCc1nc(-c2csc(S(=O)(=O)N3CCC(C(=O)NCc4cccs4)CC3)c2)no1`, the RP-LC retention time was determined as 860 s. In turn, `Cn1cc2c(n1)c(=O)n(Cc1ccccc1)c(=O)n2CC(=O)NCc1ccccc1` had an RP-LC retention time of 769 s. Next, `Cc1ccc2c(c1)OCC(=O)N2Cc1nc(-c2ccc(C(C)(C)C)cc2)no1`: 1290 s; `Cc1cc(OCC(=O)Nc2ccc(Cl)cc2F)nc(N2CCN(c3ccccc3)CC2)n1`: 945 s. In turn, `COc1ccccc1-c1nc(Cn2nnc(-c3nc(-c4ccccc4Cl)no3)c2C)c(C)o1` had an RP-LC retention time of 1120 s. For `Cc1noc(C)c1CCC(=O)N(C)C1CCc2nn(CC3CC3)c(=O)n2CC1` (stereo not drawn), the RP-LC retention time is 644 s. `COc1ccc(OC)c(NC(=O)c2cc3nc(-c4cccs4)cc(C(F)(F)F)n3n2)c1` came in with an RP-LC retention time of 1200 s. `Cc1ccc(C)c(NC(=O)C(=O)NCC(c2ccc3c(c2)CCCN3C)N2CCCC2)c1` (stereo not drawn) yielded an RP-LC retention time of 746 s.

`CSc1ccc(C2c3[nH]c4ccccc4c3CCN2C(=O)C2CC2)cc1` (stereo not drawn) registered an RP-LC retention time of 1120 s. Take `Cc1cc(C)c2c(n1)sc1c(=O)n(CC(=O)Nc3ccc(F)c(F)c3)c(C)nc12`: the RP-LC retention time came to 910 s. Next, `O=S(=O)(c1ccc(-c2noc(-c3cccc(Br)c3)n2)cc1)N1CCOCC1`: 1190 s; `O=C(CCNc1c(-c2ccc(F)cc2)nc2cnccn12)NCc1ccc2c(c1)OCO2`: 716 s; `COc1ccc(NC(=O)CN2CCc3[nH]c4c(C)ccc(F)c4c(=O)c3C2)cc1OC`: 1050 s. With `CCOc1ccc(-n2c(CN3CCN(C(=O)NC4CCCC4)CC3)nc3cccnc32)cc1` the figure was 636 s; with `COc1ccccc1Nc1c(-c2ccc(SC)cc2)nc2cnccn12`, 974 s. Consider `CCn1cc(-c2nc(CC(=O)Nc3ccccc3C)cs2)c2cccnc21`, for which the RP-LC retention time was found to be 980 s.

With `CCCc1cc(N2CCN(C(=O)C(C)Oc3ccccc3)CC2)nc2nnc(C)n12` (stereo not drawn), the RP-LC retention time is 656 s. Consider `CCOc1ccc(-c2cn3ccn(-c4ccc(OC)c(OC)c4)c(=O)c3n2)cc1`, for which the RP-LC retention time amounted to 781 s. Next, `CC(C(=O)N1Cc2c(C(=O)NC3CC3)nn(C)c2C1)c1ccccc1` (stereo not drawn): 708 s; `CN1C(=O)c2cccnc2Sc2cc(NC(=O)C3CCOC3)ccc21` (stereo not drawn): 619 s; `COc1cc(OC)cc(N2C(=O)CC(c3ccc(OC)c(OC)c3)CC2=O)c1`: 833 s. On to `CCn1nc(C)c(S(=O)(=O)N2CCN(C(=O)C(C)Oc3ccccc3)CC2)c1C` (stereo not drawn), for which the RP-LC retention time amounted to 780 s. `O=[N+]([O-])c1ccc(-c2nc(N3CCCCCC3)c3ccccc3n2)cc1` yielded an RP-LC retention time of 820 s. As for `CC1(C)CC(O)CC(C)(C)N1CC(O)COc1ccc(Cl)cc1Cl` (stereo not drawn), the RP-LC retention time worked out at 590 s.

In turn, `Cc1cc(C)c(C)c(S(=O)(=O)N2CCC3(CCN(c4cccnc4)C3)C2)c1C` (stereo not drawn) yielded an RP-LC retention time of 762 s.

The compound `Cc1noc(C2CN(C(=O)Nc3cccc(Cl)c3F)CC23CCOCC3)n1` (stereo not drawn) displayed an RP-LC retention time of 783 s. Consider `CCc1ccccc1NC(=O)C1CCCN(S(=O)(=O)c2cn(C(C)C)cn2)C1` (stereo not drawn), for which the RP-LC retention time came to 782 s. `CCn1cnc(S(=O)(=O)N2CCCC(C(=O)NCc3cccc(C)c3)C2)c1` (stereo not drawn): the RP-LC retention time stood at 747 s. For `COCCNC(=O)C(=O)NCC1CCN(C(=O)c2ccccc2F)CC1`, the RP-LC retention time came out at 609 s. Compound `CCCCN(C)C(=O)Cn1cncc(-c2nc(-c3ccccc3)cs2)c1=O` gave an RP-LC retention time of 946 s.

With `CCn1c(C(=O)NCc2ccc(OC)cc2)cc2sc(Cl)cc21`, the RP-LC retention time was 1130 s. For `COC(=O)c1cccc(NC(=O)N2CCC(c3nc(C(=O)N(C)C)c(C)o3)CC2)c1`, the RP-LC retention time came out at 972 s. `CCCN(CC1CCOC1)C(=O)c1ccccc1Br` (stereo not drawn) registered an RP-LC retention time of 801 s. For the compound `Cn1cc(S(=O)(=O)N2CCC(C(=O)N3CCOCC3)CC2)cc1C(=O)N1CCCC1`, the RP-LC retention time stood at 626 s. In the case of `CNC(=O)C1CCCN(c2nc3ncn(CC(=O)Nc4ccc(F)cc4Cl)c(=O)c3s2)C1` (stereo not drawn), the RP-LC retention time was found to be 650 s. With `Cc1nc(C)c(C(=O)N2CCC(Oc3ccc(-c4noc(C5CC5)n4)cc3)C2)s1` (stereo not drawn), the RP-LC retention time was found to be 860 s. Next, `Cn1cc(C2=CCN(S(=O)(=O)c3ccc(F)c(F)c3)CC2)c2cccnc21`: 981 s; `CN(CCc1noc(COc2ccccc2)n1)C(=O)Nc1cccc(Br)c1`: 964 s. Compound `Cc1ccc(S(=O)(=O)CCc2noc(C(=O)NCCCN3CCC(C)CC3)n2)cc1` had an RP-LC retention time of 637 s. On to `Cc1cc(=O)n(CC(=O)Nc2cc(F)ccc2F)c(-c2ccccc2)n1`, for which the RP-LC retention time is 1010 s. With `CCN(CCN(C)C)c1ccc(C(=O)O)cc1NS(=O)(=O)c1ccccc1Cl` the figure was 582 s. With `COc1ccc(OCc2nnc3sc(-c4cc5ccccc5o4)nn23)cc1` the figure was 984 s.

For the compound `CCCN(CC(=O)N1CCc2sccc2C1COc1ccc(F)cc1)C(=O)NCC` (stereo not drawn), the RP-LC retention time amounted to 859 s. Take `COc1ccc(-c2cn3ccn(-c4cc(C)cc(C)c4)c(=O)c3n2)cc1`: the RP-LC retention time amounted to 874 s. Next, `Cc1ccc(-c2nc3cnccn3c2Nc2ccc(C)cc2C)cc1`: 1070 s. In the case of `COc1cn(CC(=O)NCc2ccc3c(c2)OCO3)c(CSc2ccccc2)cc1=O`, the RP-LC retention time was determined as 618 s. In turn, `O=C(NC1CCCCC1)N1CCCC(c2nnnn2-c2ccccc2)C1` (stereo not drawn) had an RP-LC retention time of 818 s.

Compound `CCOc1ccc(NC(=O)C2CC(=O)N(CCc3c[nH]c4ccc(F)cc34)C2)cc1` (stereo not drawn) displayed an RP-LC retention time of 811 s.
